From patent US20250136578A1 (Kolm Therapeutics Inc., priority 2023, published 2025)

Columns and labels:
AR / CBP ternary complex = AR / CBP ternary complex (Homo sapiens, UniProt P10275+Q92793); experiment: Ternary complex formation assay (sandwich ELISA, AR capture, CBP antibody detection) in VCaP cell lysates; type: cell-based; details: treated 1.5 hours, rabbit CBP or p300 antibody detection, average, read-out: Average Ternary Complex
Summary of the method: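 Sandwich ELISA: plates were coated with anti-AR antibody (AR441) and given lysates of VCaP cells treated 1.5 h with bifunctional compound in charcoal-stripped serum. Co-captured CBP or p300 was probed with rabbit mAbs and HRP secondary. Chemifluorescent signal (ex 570/em 585) was read at 0, 5 and 15 min.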

VCaP cells = experiment: VCaP growth inhibition assay (CTG); type: cell-based; details: Homo sapiens, 216 h, 30 pM R1881, 9 days
Summary of the method: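 Growth was measured by CTG luminescence after a 9-day exposure of VCaP cells to compound (final 10 fM–100 nM, fivefold steps) in the presence of 30 pM final R1881, in phenol red-free DMEM/5% CSS. IC50 values were derived by nonlinear 4-parameter regression of RLU against concentration.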

Sequence of AR / CBP ternary complex (P10275 whole entry): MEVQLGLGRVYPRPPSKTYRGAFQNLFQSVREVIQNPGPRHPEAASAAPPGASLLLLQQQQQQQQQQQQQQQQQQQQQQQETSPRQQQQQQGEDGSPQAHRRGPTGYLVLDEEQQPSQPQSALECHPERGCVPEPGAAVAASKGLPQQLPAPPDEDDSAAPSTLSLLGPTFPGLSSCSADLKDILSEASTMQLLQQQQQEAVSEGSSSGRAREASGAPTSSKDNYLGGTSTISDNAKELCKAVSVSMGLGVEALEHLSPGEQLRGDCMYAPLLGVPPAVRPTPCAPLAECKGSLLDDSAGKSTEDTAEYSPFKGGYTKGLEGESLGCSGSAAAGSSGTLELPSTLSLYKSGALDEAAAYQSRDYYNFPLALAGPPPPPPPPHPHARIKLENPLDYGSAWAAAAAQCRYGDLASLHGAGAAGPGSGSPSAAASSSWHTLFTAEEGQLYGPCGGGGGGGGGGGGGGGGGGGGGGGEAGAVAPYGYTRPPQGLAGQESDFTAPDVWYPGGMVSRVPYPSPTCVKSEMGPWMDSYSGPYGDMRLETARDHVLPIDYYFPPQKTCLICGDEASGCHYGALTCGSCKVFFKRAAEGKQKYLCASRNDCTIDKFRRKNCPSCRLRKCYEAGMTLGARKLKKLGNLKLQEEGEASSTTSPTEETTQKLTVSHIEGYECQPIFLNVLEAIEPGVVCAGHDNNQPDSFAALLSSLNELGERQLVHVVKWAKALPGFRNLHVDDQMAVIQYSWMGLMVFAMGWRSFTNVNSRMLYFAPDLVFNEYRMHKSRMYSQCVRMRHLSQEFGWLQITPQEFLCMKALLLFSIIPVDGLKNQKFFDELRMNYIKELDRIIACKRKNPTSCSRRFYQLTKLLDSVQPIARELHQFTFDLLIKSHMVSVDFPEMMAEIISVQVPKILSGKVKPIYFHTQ
Sequence of AR / CBP ternary complex (Q92793 2-2442): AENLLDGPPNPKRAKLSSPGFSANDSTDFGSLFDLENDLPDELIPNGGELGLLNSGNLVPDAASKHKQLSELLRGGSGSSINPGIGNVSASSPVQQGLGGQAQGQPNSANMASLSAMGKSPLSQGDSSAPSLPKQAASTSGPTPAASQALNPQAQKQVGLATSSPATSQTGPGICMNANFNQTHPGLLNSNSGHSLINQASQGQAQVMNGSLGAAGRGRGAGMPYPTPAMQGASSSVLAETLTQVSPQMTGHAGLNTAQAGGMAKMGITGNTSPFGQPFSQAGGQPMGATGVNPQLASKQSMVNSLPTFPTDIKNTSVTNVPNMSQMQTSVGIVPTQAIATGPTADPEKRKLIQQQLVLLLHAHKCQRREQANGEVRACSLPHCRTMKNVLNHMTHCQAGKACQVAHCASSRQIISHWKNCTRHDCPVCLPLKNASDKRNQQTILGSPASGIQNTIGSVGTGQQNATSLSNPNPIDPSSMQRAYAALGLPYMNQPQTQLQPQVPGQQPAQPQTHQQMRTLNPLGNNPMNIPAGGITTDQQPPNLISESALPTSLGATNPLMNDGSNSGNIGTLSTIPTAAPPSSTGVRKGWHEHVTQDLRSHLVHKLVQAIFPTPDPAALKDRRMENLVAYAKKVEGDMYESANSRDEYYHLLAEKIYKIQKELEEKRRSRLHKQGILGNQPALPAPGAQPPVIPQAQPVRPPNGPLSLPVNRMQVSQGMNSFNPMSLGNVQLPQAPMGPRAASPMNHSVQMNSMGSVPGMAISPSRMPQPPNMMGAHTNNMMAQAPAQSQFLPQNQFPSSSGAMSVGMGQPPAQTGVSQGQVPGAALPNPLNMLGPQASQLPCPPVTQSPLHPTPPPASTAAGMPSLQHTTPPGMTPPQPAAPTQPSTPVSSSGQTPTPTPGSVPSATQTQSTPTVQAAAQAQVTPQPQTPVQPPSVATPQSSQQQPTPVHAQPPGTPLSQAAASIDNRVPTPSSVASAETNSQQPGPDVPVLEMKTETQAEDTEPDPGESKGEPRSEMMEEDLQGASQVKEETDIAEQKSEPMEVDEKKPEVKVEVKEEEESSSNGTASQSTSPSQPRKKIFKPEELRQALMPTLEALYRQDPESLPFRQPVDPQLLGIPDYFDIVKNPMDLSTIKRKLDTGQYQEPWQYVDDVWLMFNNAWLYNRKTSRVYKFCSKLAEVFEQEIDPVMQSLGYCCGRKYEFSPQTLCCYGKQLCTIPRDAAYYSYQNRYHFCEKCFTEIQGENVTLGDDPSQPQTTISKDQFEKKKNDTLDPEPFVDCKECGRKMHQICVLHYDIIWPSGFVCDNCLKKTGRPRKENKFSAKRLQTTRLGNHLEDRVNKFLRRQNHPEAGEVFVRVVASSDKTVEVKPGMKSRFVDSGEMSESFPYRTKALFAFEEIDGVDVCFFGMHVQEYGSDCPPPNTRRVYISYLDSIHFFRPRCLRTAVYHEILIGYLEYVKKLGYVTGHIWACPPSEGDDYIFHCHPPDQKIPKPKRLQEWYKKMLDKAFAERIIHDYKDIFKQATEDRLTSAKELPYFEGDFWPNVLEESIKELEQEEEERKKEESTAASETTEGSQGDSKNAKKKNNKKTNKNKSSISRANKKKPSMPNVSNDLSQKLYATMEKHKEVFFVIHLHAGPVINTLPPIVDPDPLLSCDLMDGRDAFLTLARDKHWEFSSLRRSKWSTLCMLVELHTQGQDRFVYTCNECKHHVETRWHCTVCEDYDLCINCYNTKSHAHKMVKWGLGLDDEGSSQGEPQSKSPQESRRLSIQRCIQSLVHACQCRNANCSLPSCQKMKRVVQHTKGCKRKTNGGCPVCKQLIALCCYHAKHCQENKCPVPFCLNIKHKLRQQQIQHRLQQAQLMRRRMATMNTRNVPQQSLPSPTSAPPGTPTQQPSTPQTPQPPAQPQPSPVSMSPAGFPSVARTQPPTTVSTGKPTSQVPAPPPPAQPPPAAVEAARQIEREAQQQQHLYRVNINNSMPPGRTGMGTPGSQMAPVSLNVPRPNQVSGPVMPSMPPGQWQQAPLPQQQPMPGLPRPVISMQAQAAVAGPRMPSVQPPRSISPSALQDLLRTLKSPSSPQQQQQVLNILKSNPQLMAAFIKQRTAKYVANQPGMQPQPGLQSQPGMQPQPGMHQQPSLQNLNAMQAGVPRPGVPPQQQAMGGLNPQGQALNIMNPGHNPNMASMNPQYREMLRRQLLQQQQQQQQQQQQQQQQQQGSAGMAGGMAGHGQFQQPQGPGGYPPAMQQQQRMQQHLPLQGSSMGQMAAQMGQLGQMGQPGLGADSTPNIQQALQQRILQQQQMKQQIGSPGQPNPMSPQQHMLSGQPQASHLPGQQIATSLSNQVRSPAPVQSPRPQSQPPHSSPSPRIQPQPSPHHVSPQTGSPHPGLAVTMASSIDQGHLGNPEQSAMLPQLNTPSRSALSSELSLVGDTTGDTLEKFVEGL

| Structure (SMILES) | EC50 (AR / CBP ternary complex) [nM] | IC50 (VCaP cells) [nM] |
| --- | --- | --- |
| CC(=O)N1CCc2c(c(N3CCCc4cc(-c5cnn(C)c5)c(C(F)F)cc43)nn2C2CCN(CCC#Cc3ccc(C(=O)N[C@H]4CC[C@H](Oc5ccc(C#N)c(Cl)c5)CC4)nn3)CC2)C1 [Compound 94, 6-[4-[4-[5-acetyl-3-[7-(difluoromethyl)-6-(1-methylpyrazol-4-yl)-3,4-dihydro-2H-quinolin-1-yl]-6,7-dihydro-4H-pyrazolo[4,3-c]pyridin-1-yl]-1-piperidyl]but-1-ynyl]-N-[4-(3-chloro-4-cyano-phenoxy)cyclohexyl]pyridazine-3-carboxamide] | 1 to 10 | 0.1 to 1 |
| CN1C(=O)CCc2cc(N3CCCc4cc(-c5ccc(CCC6CCN(c7ccc(C(=O)N[C@H]8CC[C@H](Oc9ccc(C#N)c(Cl)c9)CC8)nn7)CC6)nc5)c(C(F)F)cc43)ccc21 [Compound 59, N-[4-(3-chloro-4-cyano-phenoxy)cyclohexyl]-6-[4-[2-[5-[7-(difluoromethyl)-1-(1-methyl-2-oxo-3,4-dihydroquinolin-6-yl)-3,4-dihydro-2H-quinolin-6-yl]-2-pyridyl]ethyl]-1-piperidyl]pyridazine-3-carboxamide] | > 100 | > 100 |
| Cc1cc2c(N3CCCc4cc(-c5cnn(C)c5)c(C(F)F)cc43)cc(N3CCN(CC4CCN(c5ccc(C(=O)N[C@H]6CC[C@H](Oc7ccc(C#N)c(Cl)c7)CC6)nn5)CC4)CC3)cc2n(C)c1=O [Compound 135, N-[4-(3-chloro-4-cyano-phenoxy)cyclohexyl]-6-[4-[[4-[5-[7-(difluoromethyl)-6-(1-methylpyrazol-4-yl)-3,4-dihydro-2H-quinolin-1-yl]-1,3-dimethyl-2-oxo-7-quinolyl]piperazin-1-yl]methyl]-1-piperidyl]pyridazine-3-carboxamide] | 1 to 10 | 0.1 to 1 |
| C[C@@H]1CC(=O)Nc2cc(C3CCN(CC4CCN(c5ccc(C(=O)N[C@H]6CC[C@H](Oc7ccc(C#N)c(Cl)c7)CC6)nn5)CC4)CC3)cc(-c3ccc4c(cnn4C)c3)c2N1 [Compound 89] | < 1 | ≤ 0.1 |
| CC(=O)N1CCc2c(c(N3CCCc4cc(-c5cnn(C)c5)c(C(F)F)cc43)nn2[C@@H]2CCN(CC3CCN(c4ccc(C(=O)N[C@H]5CC[C@H](Oc6ccc(C#N)c(Cl)c6)CC5)nn4)CC3)C[C@H]2F)C1 [Compound 141, 6-[4-[[(3R,4R)-4-[5-acetyl-3-[7-(difluoromethyl)-6-(1-methylpyrazol-4-yl)-3,4-dihydro-2H-quinolin-1-yl]-6,7-dihydro-4H-pyrazolo[4,3-c]pyridin-1-yl]-3-fluoro-1-piperidyl]methyl]-1-piperidyl]-N-[4-(3-chloro-4-cyano-phenoxy)cyclohexyl]pyridazine-3-carboxamide] | < 1 | ≤ 0.1 |
| CC(=O)N1CCc2c(c(N3CCCc4cc(-c5ccn(C)n5)c(C(F)F)cc43)nn2C2CCN(CC3CCN(c4ccc(C(=O)N[C@H]5CC[C@H](Oc6ccc(C#N)c(Cl)c6)CC5)nn4)CC3)CC2)C1 [Compound 254, 6-[4-[[4-[5-acetyl-3-[7-(difluoromethyl)-6-(1-methylpyrazol-3-yl)-3,4-dihydro-2H-quinolin-1-yl]-6,7-dihydro-4H-pyrazolo[4,3-c]pyridin-1-yl]-1-piperidyl]methyl]-1-piperidyl]-N-[4-(3-chloro-4-cyano-phenoxy)cyclohexyl]pyridazine-3-carboxamide] | < 1 | ≤ 0.1 |
| CC(=O)N1CCc2c(c(N3CCCc4cc(-c5ccc(CCC6CCN(c7ccc(C(=O)N[C@H]8CC[C@H](Oc9ccc(C#N)c(Cl)c9)CC8)cn7)CC6)cc5)c(C(F)F)cc43)nn2C2CCOCC2)C1 [Compound 168, 6-[4-[2-[4-[1-(5-acetyl-1-tetrahydropyran-4-yl-6,7-dihydro-4H-pyrazolo[4,3-c]pyridin-3-yl)-7-(difluoromethyl)-3,4-dihydro-2H-quinolin-6-yl]phenyl]ethyl]-1-piperidyl]-N-[4-(3-chloro-4-cyano-phenoxy)cyclohexyl]pyridine-3-carboxamide] | 10 to 100 | ≤ 0.1 |
| CC(=O)N1CCc2c(c(N3CCCc4cc(-c5cnn(C)c5)ncc43)nn2C2CCN(C(=O)C3CCN(c4ccc(C(=O)N[C@H]5CC[C@H](Oc6ccc(C#N)c(Cl)c6)CC5)nn4)CC3)CC2)C1 [Compound 67, 6-[4-[4-[5-acetyl-3-[6-(1-methylpyrazol-4-yl)-3,4-dihydro-2H-1,7-naphthyridin-1-yl]-6,7-dihydro-4H-pyrazolo[4,3-c]pyridin-1-yl]piperidine-1-carbonyl]-1-piperidyl]-N-[4-(3-chloro-4-cyano-phenoxy)cyclohexyl]pyridazine-3-carboxamide] | < 1 | 0.1 to 1 |
| CC(=O)N1CCc2c(c(N3CCCc4ccc(C(F)F)cc43)nn2C2CC3(C2)CN(CC2CC4(C2)CN(c2ccc(C(=O)N[C@H]5CC[C@H](Oc6ccc(C#N)c(Cl)c6)CC5)nn2)C4)C3)C1 (some centres unmarked) [Compound 43, -[6-[[6-[5-acetyl-3-[7-(difluoromethyl)-3,4-dihydro-2H-quinolin-1-yl]-6,7-dihydro-4H-pyrazolo[4,3-c]pyridin-1-yl]-2-azaspiro [3.3]heptan-2-yl]methyl]-2-azaspiro [3.3]heptan-2-yl]-N-[4-(3-chloro-4-cyano-phenoxy)cyclohexyl] pyridazine-3-carboxamide] | 1 to 10 | 0.1 to 1 |

The remaining lines, values ahead:

| EC50 (AR / CBP ternary complex) [nM] | IC50 (VCaP cells) [nM] | Structure (SMILES) |
| --- | --- | --- |
| < 1 | 0.1 to 1 | CC(=O)N1CCc2c(c(N3CCCc4cc(-c5cnn(C)c5)c(C(F)F)cc43)nn2[C@H]2CC[C@]3(CCCN(C4CN(c5ccc(C(=O)N[C@H]6CC[C@H](Oc7ccc(C#N)c(Cl)c7)CC6)nn5)C4)C3)CC2)C1 [Compound 268, 6-[3-[9-[5-acetyl-3-[7-(difluoromethyl)-6-(1-methylpyrazol-4-yl)-3,4-dihydro-2H-quinolin-1-yl]-6,7-dihydro-4Hpyrazolo[4,3-c]pyridin-1-yl]-2-azaspiro[5.5]undecan-2-yl]azetidin-1-yl]-N-[4-(3-chloro-4-cyanophenoxy)cyclohexyl]pyridazine-3-carboxamide] |
| < 1 | ≤ 0.1 | CC(=O)N1CCc2c(c(N3CCCc4cc(-c5cnn(C)c5)c(C)cc43)nn2C2CCN(CC3CCN(c4ccc(C(=O)N[C@H]5CC[C@H](Oc6ccc(C#N)c(Cl)c6C)CC5)nn4)CC3(C)C)CC2)C1 (some centres unmarked) [Compound 291, 6-[4-[[4-[5-acetyl-3-[7-methyl-6-(1-methylpyrazol-4-yl)-3,4-dihydro-2H-quinolin-1-yl]-6,7-dihydro-4H-pyrazolo[4,3-c]pyridin-1-yl]-1-piperidyl]methyl]-3,3-dimethyl-1-piperidyl]-N-[4-(3-chloro-4-cyano-2-methyl-phenoxy)cyclohexyl]pyridazine-3-carboxamide] |
| < 1 | ≤ 0.1 | CC(=O)N1CCc2c(c(N3CCCc4cc(-c5cnn(C)c5)c(C(F)F)cc43)nn2C2CCN(C3CCN(c4ccc(C(=O)N[C@H]5CC[C@H](Oc6ccc(C#N)c(Cl)c6)CC5)nn4)CC3(F)F)CC2)C1 (some centres unmarked) [Compound 198, 6-[4-[4-[5-acetyl-3-[7-(difluoromethyl)-6-(1-methylpyrazol-4-yl)-3,4-dihydro-2H-quinolin-1-yl]-6,7-dihydro-4H-pyrazolo[4,3-c]pyridin-1-yl]-1-piperidyl]-3,3-difluoro-1-piperidyl]-N-[4-(3-chloro-4-cyano-phenoxy)cyclohexyl]pyridazine-3-carboxamide] |
| < 1 | ≤ 0.1 | CC(=O)N1CCc2c(c(N3CCCc4cc(C#N)ccc43)nn2C2CCN(C(=O)C3CCN(c4ccc(C(=O)N[C@H]5CC[C@H](Oc6ccc(C#N)c(Cl)c6)CC5)nn4)CC3)CC2)C1 [Compound 61, 6-[4-[4-[5-acetyl-3-(6-cyano-3,4-dihydro-2H-quinolin-1-yl)-6,7-dihydro-4H-pyrazolo[4,3-c]pyridin-1-yl]piperidine-1-carbonyl]-1-piperidyl]-N-[4-(3-chloro-4-cyano-phenoxy)cyclohexyl]pyridazine-3-carboxamide] |
| < 1 | 0.1 to 1 | CC(=O)N1CCc2c(c(N3CCCc4cc(C#N)ccc43)nn2C2CCN(C[C@H]3CCN(c4ccc(C(=O)N[C@H]5CC[C@H](Oc6ccc(C#N)c(Cl)c6)CC5)nn4)C[C@@H]3C)CC2)C1 (stereo in doubt) [Compound 105, 6-[4-[[4-[5-acetyl-3-(6-cyano-3,4-dihydro-2H-quinolin-1-yl)-6,7-dihydro-4H-pyrazolo[4,3-c]pyridin-1-yl]-1-piperidyl]methyl]-3-methyl-1-piperidyl]-N-[4-(3-chloro-4-cyano-phenoxy)cyclohexyl]pyridazine-3-carboxamide] |
| < 1 | 0.1 to 1 | CC(=O)N1CCc2c(c(N3CCCc4cc(-c5cnn(C)c5)c(C(F)F)cc43)nn2[C@H]2CC[C@H](N3CCC4(CC3)CC(Oc3ccc(C(=O)N[C@H]5CC[C@H](Oc6ccc(C#N)c(Cl)c6)CC5)nn3)C4)CC2)C1 [Compound 248] |
| < 1 | ≤ 0.1 | CC(=O)N1CCc2c(c(N3CCCc4cc(C#N)ncc43)nn2C2CCN(CC3CCN(c4ccc(C(=O)N[C@H]5CC[C@H](Oc6ccc(C#N)c(Cl)c6)CC5)nn4)CC3)CC2)C1 [Compound 68, 6-[4-[[4-[5-acetyl-3-(6-cyano-3,4-dihydro-2H-1,7-naphthyridin-1-yl)-6,7-dihydro-4H-pyrazolo[4,3-c]pyridin-1-yl]-1-piperidyl]methyl]-1-piperidyl]-N-[4-(3-chloro-4-cyano-phenoxy)cyclohexyl]pyridazine-3-carboxamide] |
